Measured values reported in publication PMC5716539, “The acute glucose lowering effect of specific GPR120 activation in mice is mainly driven by glucagon-like peptide 1” (PLoS ONE, 2017).
Read-outs that look alike come from different tables or passages of the source.

Assays:
GPR120 [1] = system: GPR120; design: method as in PMID 24997608; conditions: read-out: EC50 in β-arrestin; cited from earlier work
GPR120 [2] = system: GPR120; design: method as in PMID 24997608; conditions: read-out: EC50 in calcium mobilization; cited from earlier work
mouse GPR40 = molecular target: T1, mouse GPR40 (Mus musculus, UniProt Q76JU9); test: Calcium mobilization assay in HEK293-mGPR40 cells; format: cell-based; conditions: calcium mobilization
T1 construct: expressed in transfected cells
Description: CHO-hGPR120 and CHO cells were cultured in DMEM/F-12 (Invitrogen) with 10% FBS (Sigma) and HEK293-mGPR40 in DMEM (Invitrogen) supplemented with 10% FBS in 384-well poly-D-Lysin coated microplates (Greiner) at 37°C, 95% humidity and 5% CO2. After 19 hours cell media was replaced with Calcium4 dye (Molecular Devices) in HBSS (Invitrogen), 20 mM HEPES (Invitrogen), pH 7.4 and 1.25 mM Probenecid (Sigma). After 1 hour at room temperature agonists were added and calcium mobilization was detected as change in fluorescence (λex = 488 and λem = 540 nm) using a FLIPR^TETRA (Molecular Devices).

Caco-2 cells = system: Caco-2 cells; design: method as in PMID 26791484; conditions: cited from earlier work
lean female mice = test: Intravenous glucose tolerance test (IVGTT) in lean female mice; format: in vivo, mouse; conditions: 30 nmol/kg i.p. 15 min prior to IVGTT; trend towards lower response
Description: Lean female mice (body weight 20–25 g), were randomized on body weight and fasted 4 hours prior to the IVGTT. Metabolex-36 (100 mg/kg) was administered orally 60 min and AZ13581837 (35mg/kg) 30 min before the IVGTT ([…]). Control mice were given vehicle (0.5% HPMC, 0.1% Tween-80) at corresponding time points. The specificity of AZ13581837 was examined in IVGTT in GPR120 null mice. GPR120 agonist doses were selected to reach plasma levels of at least 10 times over the in vitro EC50 value to achieve maximal activation of GPR120 (S2 Appendix). Thirty minutes prior to the glucose load, the mice were anaesthetised (20 mg/kg fluanisone/0.8 mg/kg fentanyl (Hypnorm®, Janssen, Beerse, Belgium) and 10 mg/kg midazolam (Dormicum®, Hoffman-LaRoche, Basel, Switzerland)) to allow for rapid blood sampling. The mice were kept at a heating pad to maintain body temperature.
In separate experiments, mice were pretreated with the GLP-1 receptor antagonist exendin 9–39 (30 nmol/kg, Bachem; intraperitoneally) alone or in combination with the GPR120 agonists, 15 min prior to the IVGTT. Insulin and glucose were measured 0, 1, 5, 10, 20 and 40 min after intravenous (iv) glucose administration. In separate groups of mice total GLP-1 levels were measured 60 min after oral administration of Metabolex-36 or 30 min after AZ13581837 and in corresponding vehicle (0.5% HPMC, 0.1% Tween-80) dosed mice. Blood samples were collected in EDTA coated tubes, centrifuged at 10000xg for 4 min, and plasma was separated and stored frozen until analyzed.
In the IVGTT, the acute insulin response (AIR) was calculated as the mean of suprabasal 1 and 5 min values, and the glucose elimination was quantified using the glucose elimination constant (KG) calculated as the slope of the logarithmic transformation of circulating glucose between 1 and 20 min after the glucose bolus. Multiple comparisons between the different groups were performed by one-way ANOVA. Tukey’s or Bonferroni’s post hoc test were used to calculate statistical differences between the groups. Significant statistical difference was considered at p<0.05. Data are presented as mean ± SEM.

[3] = system: dispersed wt mouse islets cell; test: cAMP production in dispersed wild type mouse islet cells; format: cell-based; conditions: 50 nM Exendin-4
Description: (§1) Mouse islets were isolated from pancreas by collagenase digestion, handpicked under microscope following multiple washing steps and dispersed to single cells using TrypLE Express (Gibco). The dispersed islet cells (20 000 cells/well) were incubated with the GPR120 agonists for 30 min in 96-well black plates (Corning) at 37°C in Krebs ringer phosphate Hepes buffer, pH 7.4, with 11 mM Glucose, 0.1% BSA and 0.5 mM 3-isobutyl-1-methylxanthine followed by addition of d2-labeled cAMP and anti-cAMP Cryptate in conjugation and lysis buffer (Cisbio). Produced cAMP was detected with homogenous time resolved fluorescence (HTRF) (λex = 340 nm, λem = 665 and 615 nm) using a Pherastar (BMG Labtech).

[4] = system: islets from GPR120 null mice; test: cAMP production in dispersed islet cells from GPR120 null mice; format: cell-based, mouse; conditions: 50 nM Exendin-4
Description: as §1

Question: Which EC50 (GPR120 [1]) does the source give for `O=C(O)CC1CCC2(CC1)CCN(c1cc(OC(F)(F)F)ccc1Cl)CC2` [cpdA] here?
Answer: The EC50 was […].

T1 sequence (Q76JU9 whole entry): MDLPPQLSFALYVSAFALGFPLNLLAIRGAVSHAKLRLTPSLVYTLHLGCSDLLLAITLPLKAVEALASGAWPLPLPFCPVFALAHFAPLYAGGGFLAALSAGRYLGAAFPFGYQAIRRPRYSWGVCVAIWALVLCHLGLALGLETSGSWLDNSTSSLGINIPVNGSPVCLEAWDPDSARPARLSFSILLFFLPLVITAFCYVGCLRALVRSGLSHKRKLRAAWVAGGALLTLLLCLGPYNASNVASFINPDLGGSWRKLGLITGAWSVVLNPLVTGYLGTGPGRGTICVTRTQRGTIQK

Question: For `O=C(O)CCc1ccc(NCc2cccc(Oc3ccccc3)c2)cc1` [GW9508], which EC50 (mouse GPR40) is on record?
Answer: The EC50 was 0.9 ± 0.3 µM.

Question: What about the “β-arrestin-2 recruitment in Caco-2 cells” value (Caco-2 cells) of the same compound?
Answer: Its value is “recruited β-arrestin-2”.

Question: For Exendin 9–39, which “Insulin secretion, exendin 9–39 alone” value (lean female mice) is on record?
Answer: Its value is “no significant effect”.

Question: With Exendin-4 as the compound, how does the “cAMP production in islet cells from wt mice (positive control)” value [3] read?
Answer: Its value is “significantly stimulate cAMP production”.

Question: And the “cAMP production in islet cells from GPR120 null mice (positive control)” value [4]?
Answer: The value was “significantly stimulate cAMP production”.
